In publication PMC6150379, “Novel Triazole Hybrids of Betulin: Synthesis and Biological Activity Profile” (Molecules : A Journal of Synthetic Chemistry and Natural …, 2017):
≈ marks a conversion by molar mass, not a printed value.

Experiments:
[1] = tested on: C-32 (human amelanotic melanoma); assay: Cytotoxic activity, WST-1 assay; type: cell-based; settings: C-32, 72 h, Neg = negative in the concentration used
[2] = tested on: T47D (human ductal carcinoma); assay: Cytotoxic activity, WST-1 assay; type: cell-based; settings: for IC50 / IC50 ± SD: 72 h, Neg = negative in the concentration used; for potency relative to cisplatin: ratio of IC50 values
[3] = tested on: Colo-829 (human malignant melanoma); assay: Cytotoxic activity, WST-1 assay; type: cell-based; settings: Colo-829, 72 h, Neg = negative in the concentration used
SNB-19 (glioblastoma) = assay: Cytotoxic activity, WST-1 assay; type: cell-based, human; settings: SNB-19, 72 h, Neg = negative in the concentration used
[4] = tested on: MCF-7 (human adenocarcinoma); assay: Cytotoxic activity, WST-1 assay; type: cell-based; settings: MCF-7, 72 h, Neg = negative in the concentration used
[5] = tested on: SKOV-3 human ovarian cancer cell line; assay: Inhibition of tumor cell proliferation (MTT); settings: SK-OV-3, 96 h, read-out: Max. Inhibition (% of Control)
Experimental: Antiproliferative activities of the compounds were measured by the MTT assay using A549 cells and a human ovarian cancer cell line SKOV-3 (adenocarcinoma ATCC® HTB77™). A total of 2 × 10^3 cells in DMEM medium supplemented with 5% FBS were placed in each well of a 96-well flat-bottom plate. After 24 h of incubation at 37 °C in 5% CO2, the growth medium was replaced by media containing different concentrations of the derivatives. Control cultures received cisplatin 0.1–10 μg/mL, and blank wells contained 100 μL of growth medium with no cells. After 96 h of incubation, cell proliferation was determined by the colorimetric MTT assay (570 nm) reading for each concentration compared with the control. At least three replicates for each sample were used to determine the cell proliferation.

in vitro = settings: human
Experimental: The cytotoxic effect of compounds on A549 cells was determined by the MTT method, as previously described [36]. The MTT assay is the enzyme-based method, which use the 3-(4,5-dimethylthiazol-2-yl)-2,5-diphenyltetrazolium bromide as a reductive coloring agent. Briefly, subconfluent monolayers of A549 cells (2 × 10^4 cell/well in Dulbecco’s Minimal Essential Medium (DMEM) supplemented with 5% fetal bovine serum (FBS), antibiotics (100 U/mL penicillin and 100 μg/mL streptomycin), and 2 mM L-glutamine (all from Sigma Aldrich, St. Louis, MO, USA) were incubated in 96-multi-well plates in the presence of dilutions of the compounds ranging from 100 μg/mL to 0.5 μg/mL, in triplicate for 48 h at 37 °C in a humidified atmosphere with 5% CO2. After 48 h, 20 μL of MTT solution (Promega, Madison, WI, USA) was added to each well, and the microplates were kept at 37 °C/5% CO2 for 3 h. Then, the solubilization/stop solution containing SDS-HCl (100 μL/well) was added, and the absorbance values of the wells were measured at 570 nm using a 96-well plate reader (Multiskan RC spectrophotometer, Thermo Labsystems, Waltham, MA, USA). Cell viability (%) was calculated for each concentration as Abs treated/Abs control × 100, where Abs treated and Abs control are the absorbance readings for the wells with and without the tested compounds, respectively. The 50% cytotoxic concentration (CC50) was defined as the concentration that reduced cell viability by 50% with respect to controls without drugs. The CC50 value was calculated from the corresponding dose–response curves.

[6] = tested on: cytopathogenic bovine orphan virus (ECBO) strain LCR-4; assay: Time of addition assay (post-adsorption), CPE/MTT in A549 cells; type: cell-based, cytopathogenic bovine orphan virus (BEV-1); settings: for EC50: A549; for SI: selectivity index, ratio of CC50 to EC50, ECBO in A549 cells

Structure (SMILES) | IC50 ± SD [1] | IC50 ([2]; Homo sapiens) [µM] | IC50 ([3]; Homo sapiens) [µM] | IC50 (SNB-19 (glioblastoma); Homo sapiens) [µM] | IC50 ([4]; Homo sapiens, MCF7) [µM] | melting point [°C] | IC50 ± SD [4] | IC50 ± SD [2] | other results
N.N.[Cl][Pt][Cl] [Cisplatin, reference compound] |  |  |  |  |  |  |  |  | IC50 [1]: 12.3 ± 2.1 µM; IC50 [2]: 24.9 ± 1.1 µM; IC50 [3]: 16.8 ± 1.7 µM; IC50 (SNB-19 (glioblastoma)): 2.3 ± 0.05 µM; IC50 [4]: 5.5 ± 1 µM
C=C(C)C1CC[C@]2(COC(=O)c3cn(Cc4ccccc4)nn3)CC[C@]3(C)C(CCC4[C@@]5(C)CC[C@H](O)C(C)(C)C5CC[C@]43C)C12 (some centres unmarked) [Compound 5a, 28-O-(1-Benzyl-1H-1,2,3-triazol-4-yl)carbonylbetulin] | Neg | 10.5 ± 0.09 | 78.5 ± 8.3 | 96.2 ± 1.2 | 58.8 ± 1.5 | 169 to 171 |  |  | inhibition at 25 µg/mL [5]: 40%
C=C(C)C1CC[C@]2(COC(=O)c3cn(Cc4ccc(F)cc4)nn3)CC[C@]3(C)C(CCC4[C@@]5(C)CC[C@H](O)C(C)(C)C5CC[C@]43C)C12 (some centres unmarked) [Compound 5b, 28-O-[1-(4-Fluorobenzyl)-1H-1,2,3-triazol-4-yl]carbonylbetulin] | Neg | 8.5 ± 0.02 | 129 ± 7.7 | 66.1 ± 0.7 |  | 144 to 147 | Neg |  | inhibition at 10 µg/mL [5]: 40%
C=C(C)C1CC[C@]2(COC(=O)c3cn(Cc4ccc(C#N)cc4)nn3)CC[C@]3(C)C(CCC4[C@@]5(C)CC[C@H](O)C(C)(C)C5CC[C@]43C)C12 (some centres unmarked) [Compound 5c, 28-O-[1-(4-Cyanobenzyl)-1H-1,2,3-triazol-4-yl]carbonylbetulin] | Neg | 1.4 ± 0.01 | 9.7 ± 0.1 | 0.7 ± 0.08 |  | 225 to 228 | Neg |  | 
C=C(C)C1CC[C@]2(COC(=O)c3cn(CSc4ccccc4)nn3)CC[C@]3(C)C(CCC4[C@@]5(C)CC[C@H](O)C(C)(C)C5CC[C@]43C)C12 (some centres unmarked) [Compound 5d, 28-O-(1-Phenylthiomethyl-1H-1,2,3-triazol-4-yl)carbonylbetulin] | Neg | 52.5 ± 1.4 | 100 ± 5.5 | 13 ± 0.09 |  | 143 to 146 | Neg |  | inhibition at 10 µg/mL [5]: 40%
C=C(C)C1CCC2(COC(=O)c3cn(C4OC(CO)C(O)C(O)C4O)nn3)CCC3(C)C(CCC4C5(C)CCC(O)C(C)(C)C5CCC43C)C12 [Compound 5f, 28-O-[1-(1-Deoxy-β-D-glucopyranosyl)-1H-1,2,3-triazol-4-yl]carbonylbetulin] | Neg |  | 110 ± 7.2 |  |  | 184 to 186 | Neg | total decay of cytotoxic activity and Neg | IC50 ± SD (SNB-19 (glioblastoma)): Neg; inhibition at 25 µg/mL [5]: 35%; CC50 at 48 h (in vitro): 100 µg/mL (≈ 143 µM); EC50 [6]: 5 µg/mL (≈ 7.14 µM); SI [6]: 20.0
C=C(C)C1CC[C@]2(COC(=O)c3cn(CC(=O)OCC)nn3)CC[C@]3(C)C(CCC4[C@@]5(C)CC[C@H](O)C(C)(C)C5CC[C@]43C)C12 (some centres unmarked) [Compound 5g, 28-O-(1-Ethylacetyl-1H-1,2,3-triazol-4-yl)carbonylbetulin] | Neg | 135 ± 2.6 | 11.4 ± 0.2 | 92.3 ± 0.9 |  | 176 to 181 | Neg |  | 
C=C(C)C1CC[C@]2(COC(=O)c3cn(CCCO)nn3)CC[C@]3(C)C(CCC4[C@@]5(C)CC[C@H](O)C(C)(C)C5CC[C@]43C)C12 (some centres unmarked) [Compound 5h, 28-O-[1-(3-Hydroxypropyl)-1H-1,2,3-triazol-4-yl]carbonylbetulin] |  | 1.3 ± 0.05 | 6.2 ± 0.6 | 9.9 ± 0.7 | 15.5 ± 1.1 |  |  |  | IC50 ([1]; Homo sapiens): 80.3 ± 5.8 µM; potency relative to cisplatin [2]: 19 fold; CC50 at 48 h (in vitro): 27.7 µg/mL (≈ 46.5 µM); EC50 [6]: 0.5 µg/mL (≈ 0.839 µM); SI [6]: 55.5
C=C(C)C1CC[C@]2(COC(=O)c3cn(CCCN)nn3)CC[C@]3(C)C(CCC4[C@@]5(C)CC[C@H](O)C(C)(C)C5CC[C@]43C)C12 (some centres unmarked) [Compound 5i, 28-O-[1-(3-Aminopropyl)-1H-1,2,3-triazol-4-yl]carbonylbetulin] |  | 3.63 ± 0.3 | 0.6 ± 0.13 | 0.9 ± 0.03 | 6.94 ± 0.8 | 156 to 160 |  |  | IC50 ([1]; Homo sapiens): 7.9 ± 0.9 µM
C=C(C)C1CC[C@]2(COC(=O)c3cn(CC(N)C(=O)O)nn3)CC[C@]3(C)C(CCC4[C@@]5(C)CC[C@H](O)C(C)(C)C5CC[C@]43C)C12 (some centres unmarked) [Compound 5j, 2-Amino-3-[4-(28-O-betulinylcarbonyl)-1H-1,2,3-triazol-1-yl]propanoic acid] | Neg |  | 3.3 ± 1.1 |  |  | 265 to 269 | Neg | total decay of cytotoxic activity and Neg | IC50 ± SD (SNB-19 (glioblastoma)): Neg; inhibition at 10 µg/mL [5]: 40%; CC50 at 48 h (in vitro): 100 µg/mL (≈ 160 µM); EC50 [6]: 5 µg/mL (≈ 8 µM); SI [6]: 20.0
C=C(C)C1CC[C@]2(COC(=O)c3cn(C(C(=O)O)C(C)C)nn3)CC[C@]3(C)C(CCC4[C@@]5(C)CC[C@H](O)C(C)(C)C5CC[C@]43C)C12 (some centres unmarked) [Compound 5k] |  | 7.2 ± 0.2 | 8.7 ± 0.5 | 6.3 ± 0.9 | 37.2 ± 0.7 | 293 to 297 |  |  | IC50 ([1]; Homo sapiens): 46.9 ± 2.5 µM
C=C(C)C1CC[C@]2(COC(=O)c3cn(Cc4ccccc4)nn3)CC[C@]3(C)C(CCC4[C@@]5(C)CC[C@H](OC(=O)c6cn(Cc7ccccc7)nn6)C(C)(C)C5CC[C@]43C)C12 (some centres unmarked) [Compound 6a, 3,28-O,O’-Di[(1-benzyl-1H-1,2,3-triazol-4-yl)carbonyl]betulin] | Neg |  | 80.7 ± 1.8 | 24.4 ± 1.3 |  | 117 to 120 | Neg | Neg | 
C=C(C)C1CC[C@]2(COC(=O)c3cn(Cc4ccc(F)cc4)nn3)CC[C@]3(C)C(CCC4[C@@]5(C)CC[C@H](OC(=O)c6cn(Cc7ccc(F)cc7)nn6)C(C)(C)C5CC[C@]43C)C12 (some centres unmarked) [Compound 6b, 3,28-O,O’-Di[1-(4-fluorobenzyl-1H-1,2,3-triazol-4-yl)carbonyl]betulin] | Neg | 0.05 ± 0.01 |  | 0.08 ± 0.01 | 0.09 ± 0.01 | 155 to 158 |  |  | potency relative to cisplatin [2]: 500 fold; IC50 ± SD [3]: Neg
C=C(C)C1CC[C@]2(COC(=O)c3cn(Cc4ccc(C#N)cc4)nn3)CC[C@]3(C)C(CCC4[C@@]5(C)CC[C@H](OC(=O)c6cn(Cc7ccc(C#N)cc7)nn6)C(C)(C)C5CC[C@]43C)C12 (some centres unmarked) [Compound 6c, 3,28-O,O’-Di[1-(4-cyanobenzyl-1H-1,2,3-triazol-4-yl)carbonyl]betulin] | Neg | 1.1 ± 0.01 |  | 0.06 ± 0.01 | 60.7 ± 0.6 |  |  |  | IC50 ± SD [3]: Neg
C=C(C)C1CC[C@]2(COC(=O)c3cn(CSc4ccccc4)nn3)CC[C@]3(C)C(CCC4[C@@]5(C)CC[C@H](OC(=O)c6cn(CSc7ccccc7)nn6)C(C)(C)C5CC[C@]43C)C12 (some centres unmarked) [Compound 6d, 3,28-O,O’-Di[(1-phenylthiomethyl-1H-1,2,3-triazol-4-yl)carbonyl]betulin] |  | 0.9 ± 0.05 | 103 ± 4.7 | 0.5 ± 0.02 | 0.9 ± 0.08 | 127 to 131 |  |  | IC50 ([1]; Homo sapiens): 100 ± 2.8 µM
C=C(C)C1CCC2(COC(=O)c3cn(C4CC(n5cc(C)c(=O)[nH]c5=O)OC4CO)nn3)CCC3(C)C(CCC4C5(C)CCC(OC(=O)c6cn(C7CC(n8cc(C)c(=O)[nH]c8=O)OC7CO)nn6)C(C)(C)C5CCC43C)C12 (centres unmarked) [Compound 6e, 3,28-O,O’-Di[1-(3′-deoxythymidine-5′-yl-1H-1,2,3-triazol-4-yl)carbonyl]betulin] | total decay of cytotoxic effect and Neg |  |  |  |  | 224 to 227 | total decay of cytotoxic effect and Neg | total decay of cytotoxic effect and Neg | IC50 ± SD [3]: total decay of cytotoxic effect and Neg; IC50 ± SD (SNB-19 (glioblastoma)): total decay of cytotoxic effect and Neg
C=C(C)C1CCC2(COC(=O)c3cn(C4OC(CO)C(O)C(O)C4O)nn3)CCC3(C)C(CCC4C5(C)CCC(OC(=O)c6cn(C7OC(CO)C(O)C(O)C7O)nn6)C(C)(C)C5CCC43C)C12 [Compound 6f, 3,28-O,O’-Di[1-(1-deoxy-β-D-glucopyranosyl-1H-1,2,3-triazol-4-yl)carbonyl]betulin] | total decay of cytotoxic effect and Neg |  |  |  |  |  | total decay of cytotoxic effect and Neg | total decay of cytotoxic effect and Neg | IC50 ± SD [3]: total decay of cytotoxic effect and Neg; IC50 ± SD (SNB-19 (glioblastoma)): total decay of cytotoxic effect and Neg; CC50 at 48 h (in vitro): 100 µg/mL (≈ 104 µM); EC50 [6]: 5 µg/mL (≈ 5.22 µM); SI [6]: 20.0
C=C(C)C1CC[C@]2(COC(=O)c3cn(CC(=O)OCC)nn3)CC[C@]3(C)C(CCC4[C@@]5(C)CC[C@H](OC(=O)c6cn(CC(=O)OCC)nn6)C(C)(C)C5CC[C@]43C)C12 (some centres unmarked) [Compound 6g, 3,28-O,O’-Di-[(1-ethylacetyl-1H-1,2,3-triazol-4-yl)carbonyl]betulin] | Neg |  | 97.6 ± 3.3 |  |  |  | Neg | Neg | IC50 ± SD (SNB-19 (glioblastoma)): Neg
